6 compounds from ChEMBL document CHEMBL1155636, “Dihydrophenanthrenes from Spiranthes sinensis” (J Nat Prod, 2000) can be followed below.

Activity calls are given as the source filed them. No cut-off for these calls is given here.

Holding throughout (type): cell-based
The nature of data set [1]: Cytotoxicity against human MS-G2 cells at 20 ug/mL.
Data set [2] concerns MS-G2. Nature of the data set: Inhibition of Hepatitis B virus E antigen activity in human MS-G2 cells at 10 ug/mL.
In data set [3] the test system is MS-G2. Nature of the data set: Inhibition of Hepatitis B virus E antigen activity in human MS-G2 cells at 5 ug/mL.

As for `COc1cc(OC)c2c(c1Cc1ccc(O)cc1)CCc1cc(O)ccc1-2` [SINENSOL A], in data set [1], the result was Active. In addition, the outcome in the data set on MS-G2 [2] and in the data set on MS-G2 [3] was inactive.

Turning to `COc1cc(OC)c2c(c1Cc1ccc(O)cc1)CCc1c-2ccc(O)c1CC=C(C)C` [SINENSOL B], the outcome in data set [1] was Active. The result in the data set on MS-G2 [2] and with MS-G2 [3] was inactive.

For the compound `COc1cc(O)c(Cc2ccc(O)cc2)c2c1-c1ccc(O)c(CC=C(C)C)c1CC2` [SINENSOL C], the outcome in data set [1] was Active. Also, the outcome in the data set on MS-G2 [2] and in the data set with MS-G2 [3] was inactive.

For `COc1cc(O)c2c(c1Cc1ccc(O)cc1)CCc1c-2ccc2c1C=CC(C)(C)O2` [SINENSOL D], the result in data set [1] was Active. For the same compound, the result in the data set on MS-G2 [2] and in the data set with MS-G2 [3] was inactive.

As for `COc1cc(O)c2c(c1Cc1ccc(O)cc1)CCc1c-2ccc2c1CC(C(C)(C)O)O2` (stereo not drawn) [SINENSOL E], in data set [1], the outcome was Active. In addition, the result in the data set on MS-G2 [2] and in the data set with MS-G2 [3] was inactive.

As for `COc1cc(O)c2c(c1Cc1ccc(O)cc1)CCc1c-2cc(Cc2ccc(O)cc2)c(O)c1CC=C(C)C` [SINENSOL F], the outcome in data set [1] was Active. Besides, the result in the data set with MS-G2 [2] and in the data set with MS-G2 [3] was inactive.
